Measurements: ChEMBL document CHEMBL5465560, “Selectivity Literature for EUbOPEN Chemogenomic Library” (2024)
One block for each molecule: values may come before it.

Tests used:
Histamine H1 receptor = Histamine H1 receptor (Homo sapiens, UniProt P35367); assay: Selectivity interaction (Panel of non-epigenetic targets (kinases, GPCRs, ion channels, and transporters, Eurofins) ) EUB0000271b HRH1; settings: at 1 µM
[1] = molecular target: Tyrosine-protein kinase Fes/Fps (Homo sapiens) (UniProt P07332); assay: Selectivity interaction (Kinase panel (DSF assay)) EUB0001559a FES
[2] = molecular target: T1, Ankyrin repeat and protein kinase domain-containing protein 1 (Homo sapiens) (UniProt Q8NFD2); assay: Selectivity interaction (KinomeScan (DiscoverX)) EUB0001079a ANKK1; settings: at 1 µM
T1 sequence (whole entry): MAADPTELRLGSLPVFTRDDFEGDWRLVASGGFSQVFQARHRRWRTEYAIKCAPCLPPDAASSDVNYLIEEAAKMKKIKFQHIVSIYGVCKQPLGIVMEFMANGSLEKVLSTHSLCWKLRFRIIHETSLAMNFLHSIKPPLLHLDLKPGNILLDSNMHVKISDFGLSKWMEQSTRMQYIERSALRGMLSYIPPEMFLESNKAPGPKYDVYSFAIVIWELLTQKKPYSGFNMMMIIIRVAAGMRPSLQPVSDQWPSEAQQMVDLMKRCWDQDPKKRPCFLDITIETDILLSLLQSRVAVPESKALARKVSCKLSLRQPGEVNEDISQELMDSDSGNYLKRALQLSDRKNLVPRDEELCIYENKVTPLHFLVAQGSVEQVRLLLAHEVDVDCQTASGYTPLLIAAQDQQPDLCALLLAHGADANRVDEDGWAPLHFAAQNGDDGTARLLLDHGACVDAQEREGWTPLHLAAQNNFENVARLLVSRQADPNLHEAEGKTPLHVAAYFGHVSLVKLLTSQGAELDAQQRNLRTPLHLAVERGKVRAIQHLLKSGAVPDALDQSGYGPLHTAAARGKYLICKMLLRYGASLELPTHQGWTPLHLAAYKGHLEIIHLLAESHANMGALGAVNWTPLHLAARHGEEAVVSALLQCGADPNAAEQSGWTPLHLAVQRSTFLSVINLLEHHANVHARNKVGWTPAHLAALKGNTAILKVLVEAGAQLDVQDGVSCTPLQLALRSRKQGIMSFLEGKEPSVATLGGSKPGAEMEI

[3] = molecular target: Serine/threonine-protein kinase 35 (Homo sapiens) (UniProt Q8TDR2); assay: Selectivity interaction (KinomeScan (DiscoverX)) EUB0000618a STK35; settings: at 10 µM
[4] = molecular target: T2, Serine/threonine-protein kinase TAO3 (Homo sapiens) (UniProt Q9H2K8); assay: Selectivity interaction (KinomeScan (DiscoverX)) EUB0001619a TAOK3; settings: at 1 µM
T2 sequence (whole entry): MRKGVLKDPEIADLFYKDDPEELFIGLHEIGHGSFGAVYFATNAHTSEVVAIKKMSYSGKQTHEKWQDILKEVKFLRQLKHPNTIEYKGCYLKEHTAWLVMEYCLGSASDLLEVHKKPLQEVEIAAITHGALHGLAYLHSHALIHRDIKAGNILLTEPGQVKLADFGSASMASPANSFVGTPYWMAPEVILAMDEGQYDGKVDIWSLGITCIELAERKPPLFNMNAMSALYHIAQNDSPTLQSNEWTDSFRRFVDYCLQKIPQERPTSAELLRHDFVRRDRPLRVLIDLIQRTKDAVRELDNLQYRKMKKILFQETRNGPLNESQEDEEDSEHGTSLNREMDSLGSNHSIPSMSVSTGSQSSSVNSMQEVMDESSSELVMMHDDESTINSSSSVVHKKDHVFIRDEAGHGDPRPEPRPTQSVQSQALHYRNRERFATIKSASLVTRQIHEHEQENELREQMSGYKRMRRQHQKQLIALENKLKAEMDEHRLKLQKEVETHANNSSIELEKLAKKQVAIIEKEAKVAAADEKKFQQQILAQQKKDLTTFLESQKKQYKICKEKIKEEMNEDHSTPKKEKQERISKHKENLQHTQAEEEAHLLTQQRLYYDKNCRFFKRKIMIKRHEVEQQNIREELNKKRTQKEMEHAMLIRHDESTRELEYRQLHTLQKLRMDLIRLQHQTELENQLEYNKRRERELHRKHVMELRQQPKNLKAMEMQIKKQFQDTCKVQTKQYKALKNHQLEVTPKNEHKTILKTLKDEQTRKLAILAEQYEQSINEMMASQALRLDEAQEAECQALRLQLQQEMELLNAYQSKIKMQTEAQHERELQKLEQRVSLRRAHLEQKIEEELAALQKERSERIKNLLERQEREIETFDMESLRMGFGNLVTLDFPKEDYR

[5] = molecular target: Interleukin-1 receptor-associated kinase 1 (Homo sapiens) (UniProt P51617); settings: at 10 µM
[6] = molecular target: Serine/threonine-protein kinase pim-1 (Homo sapiens, UniProt P11309); assay: Selectivity interaction (Kinase panel (Invitrogen)) EUB0000639a PIM1; settings: at 200 nM
[7] = molecular target: T3, MAP/microtubule affinity-regulating kinase 4 (Homo sapiens) (UniProt Q96L34); assay: Selectivity interaction (ActivX KiNativ screen (kinase selectivity in THP-1 cell lysates)) EUB0000639a MARK4; format: subcellular; settings: lysate, at 0.04 µM
T3 sequence (whole entry): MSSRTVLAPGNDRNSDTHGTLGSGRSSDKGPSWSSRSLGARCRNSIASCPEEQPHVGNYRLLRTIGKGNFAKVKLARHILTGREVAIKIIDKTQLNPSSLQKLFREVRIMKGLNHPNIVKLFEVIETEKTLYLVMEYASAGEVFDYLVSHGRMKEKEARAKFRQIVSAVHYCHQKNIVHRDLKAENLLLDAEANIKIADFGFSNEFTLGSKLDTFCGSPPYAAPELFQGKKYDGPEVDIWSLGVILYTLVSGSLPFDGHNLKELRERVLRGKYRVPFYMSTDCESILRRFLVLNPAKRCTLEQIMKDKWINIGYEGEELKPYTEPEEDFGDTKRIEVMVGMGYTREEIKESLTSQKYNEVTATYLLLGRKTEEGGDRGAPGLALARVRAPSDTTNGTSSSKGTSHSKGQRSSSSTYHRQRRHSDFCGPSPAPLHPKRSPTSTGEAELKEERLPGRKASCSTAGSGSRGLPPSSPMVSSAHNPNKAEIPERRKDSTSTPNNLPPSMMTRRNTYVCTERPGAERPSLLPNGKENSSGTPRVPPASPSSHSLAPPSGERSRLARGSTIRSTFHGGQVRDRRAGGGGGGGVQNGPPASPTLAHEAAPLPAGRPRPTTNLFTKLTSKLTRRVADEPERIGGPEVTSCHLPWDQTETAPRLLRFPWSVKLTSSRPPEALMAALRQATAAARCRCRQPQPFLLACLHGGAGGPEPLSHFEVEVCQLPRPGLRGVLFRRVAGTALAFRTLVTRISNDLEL

Adenosine receptor A2a = Adenosine receptor A2a (Homo sapiens, UniProt P29274); assay: Selectivity interaction (Safety Panel 44tm (Eurofins)) EUB0000162b ADORA2A; settings: at 10 µM
[8] = molecular target: Serine/threonine-protein kinase MRCK alpha (Homo sapiens) (UniProt Q5VT25); assay: Selectivity interaction (KinomeScan (DiscoverX)) EUB0001049a CDC42BPA; settings: at 1 µM
Sequence of Serine/threonine-protein kinase MRCK alpha (Homo sapiens) (Q5VT25 whole entry): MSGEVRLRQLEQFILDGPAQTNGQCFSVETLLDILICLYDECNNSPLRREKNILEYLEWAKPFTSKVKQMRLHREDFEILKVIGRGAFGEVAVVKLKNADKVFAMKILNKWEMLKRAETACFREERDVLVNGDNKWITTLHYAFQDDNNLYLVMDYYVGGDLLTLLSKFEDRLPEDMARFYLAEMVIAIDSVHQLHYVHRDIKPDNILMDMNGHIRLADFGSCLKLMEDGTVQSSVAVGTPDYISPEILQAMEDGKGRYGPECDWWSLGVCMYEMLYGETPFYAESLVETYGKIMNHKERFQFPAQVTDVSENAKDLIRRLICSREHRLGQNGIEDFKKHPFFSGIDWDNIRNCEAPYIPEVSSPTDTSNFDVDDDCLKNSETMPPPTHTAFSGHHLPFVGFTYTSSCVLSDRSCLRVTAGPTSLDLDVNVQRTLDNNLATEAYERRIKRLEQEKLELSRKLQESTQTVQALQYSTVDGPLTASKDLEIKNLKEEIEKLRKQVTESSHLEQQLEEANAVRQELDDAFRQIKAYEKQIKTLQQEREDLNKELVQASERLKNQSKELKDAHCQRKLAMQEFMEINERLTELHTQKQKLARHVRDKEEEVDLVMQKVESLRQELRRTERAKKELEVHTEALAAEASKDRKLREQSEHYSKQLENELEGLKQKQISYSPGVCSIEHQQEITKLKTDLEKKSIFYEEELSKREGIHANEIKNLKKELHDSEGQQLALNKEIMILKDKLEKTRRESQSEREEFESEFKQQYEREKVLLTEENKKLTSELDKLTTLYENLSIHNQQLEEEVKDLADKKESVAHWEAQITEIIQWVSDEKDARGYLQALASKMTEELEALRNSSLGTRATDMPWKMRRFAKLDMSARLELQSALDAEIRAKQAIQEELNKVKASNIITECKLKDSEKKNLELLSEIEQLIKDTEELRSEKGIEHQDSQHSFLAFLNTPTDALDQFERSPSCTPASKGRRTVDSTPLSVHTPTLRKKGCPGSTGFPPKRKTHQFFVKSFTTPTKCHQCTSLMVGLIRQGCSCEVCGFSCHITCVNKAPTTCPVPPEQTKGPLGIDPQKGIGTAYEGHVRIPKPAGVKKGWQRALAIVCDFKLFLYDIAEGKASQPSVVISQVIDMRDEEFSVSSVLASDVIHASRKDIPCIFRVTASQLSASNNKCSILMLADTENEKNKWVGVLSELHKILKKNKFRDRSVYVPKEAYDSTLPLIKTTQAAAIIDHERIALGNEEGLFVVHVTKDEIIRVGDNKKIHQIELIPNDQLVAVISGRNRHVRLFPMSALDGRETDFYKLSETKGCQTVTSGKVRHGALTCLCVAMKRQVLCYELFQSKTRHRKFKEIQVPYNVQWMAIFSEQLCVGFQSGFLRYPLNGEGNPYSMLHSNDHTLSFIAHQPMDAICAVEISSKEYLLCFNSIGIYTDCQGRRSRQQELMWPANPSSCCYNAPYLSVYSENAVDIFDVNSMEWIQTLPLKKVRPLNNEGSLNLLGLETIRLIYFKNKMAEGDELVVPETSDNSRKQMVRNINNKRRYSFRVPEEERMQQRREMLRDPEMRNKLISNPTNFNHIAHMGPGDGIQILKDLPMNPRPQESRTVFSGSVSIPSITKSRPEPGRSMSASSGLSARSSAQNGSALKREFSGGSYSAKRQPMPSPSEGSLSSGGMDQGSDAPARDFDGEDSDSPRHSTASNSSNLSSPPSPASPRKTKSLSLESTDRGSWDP

Sequence of Serine/threonine-protein kinase pim-1 (P11309 whole entry, looked up): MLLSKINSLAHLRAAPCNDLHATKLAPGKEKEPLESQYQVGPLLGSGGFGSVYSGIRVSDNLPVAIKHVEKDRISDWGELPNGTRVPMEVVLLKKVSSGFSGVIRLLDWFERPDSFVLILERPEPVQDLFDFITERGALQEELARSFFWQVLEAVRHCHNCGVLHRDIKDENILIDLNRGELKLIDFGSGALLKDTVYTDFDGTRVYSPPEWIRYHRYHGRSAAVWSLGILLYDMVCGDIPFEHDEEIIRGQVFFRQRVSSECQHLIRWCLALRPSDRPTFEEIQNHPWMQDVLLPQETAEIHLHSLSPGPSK
Sequence of Adenosine receptor A2a (P29274 whole entry): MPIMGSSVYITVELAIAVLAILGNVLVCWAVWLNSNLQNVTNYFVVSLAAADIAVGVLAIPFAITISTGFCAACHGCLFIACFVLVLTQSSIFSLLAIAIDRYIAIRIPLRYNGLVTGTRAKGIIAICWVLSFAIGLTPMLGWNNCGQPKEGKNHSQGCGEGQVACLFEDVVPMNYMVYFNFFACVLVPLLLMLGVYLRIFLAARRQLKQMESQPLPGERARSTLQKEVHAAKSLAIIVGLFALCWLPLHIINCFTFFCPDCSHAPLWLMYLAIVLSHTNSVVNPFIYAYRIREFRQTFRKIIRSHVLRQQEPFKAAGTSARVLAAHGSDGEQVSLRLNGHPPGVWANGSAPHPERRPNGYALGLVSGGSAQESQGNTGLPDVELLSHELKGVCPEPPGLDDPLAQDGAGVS
Sequence of Tyrosine-protein kinase Fes/Fps (Homo sapiens) (P07332 whole entry, the tested form may be a part): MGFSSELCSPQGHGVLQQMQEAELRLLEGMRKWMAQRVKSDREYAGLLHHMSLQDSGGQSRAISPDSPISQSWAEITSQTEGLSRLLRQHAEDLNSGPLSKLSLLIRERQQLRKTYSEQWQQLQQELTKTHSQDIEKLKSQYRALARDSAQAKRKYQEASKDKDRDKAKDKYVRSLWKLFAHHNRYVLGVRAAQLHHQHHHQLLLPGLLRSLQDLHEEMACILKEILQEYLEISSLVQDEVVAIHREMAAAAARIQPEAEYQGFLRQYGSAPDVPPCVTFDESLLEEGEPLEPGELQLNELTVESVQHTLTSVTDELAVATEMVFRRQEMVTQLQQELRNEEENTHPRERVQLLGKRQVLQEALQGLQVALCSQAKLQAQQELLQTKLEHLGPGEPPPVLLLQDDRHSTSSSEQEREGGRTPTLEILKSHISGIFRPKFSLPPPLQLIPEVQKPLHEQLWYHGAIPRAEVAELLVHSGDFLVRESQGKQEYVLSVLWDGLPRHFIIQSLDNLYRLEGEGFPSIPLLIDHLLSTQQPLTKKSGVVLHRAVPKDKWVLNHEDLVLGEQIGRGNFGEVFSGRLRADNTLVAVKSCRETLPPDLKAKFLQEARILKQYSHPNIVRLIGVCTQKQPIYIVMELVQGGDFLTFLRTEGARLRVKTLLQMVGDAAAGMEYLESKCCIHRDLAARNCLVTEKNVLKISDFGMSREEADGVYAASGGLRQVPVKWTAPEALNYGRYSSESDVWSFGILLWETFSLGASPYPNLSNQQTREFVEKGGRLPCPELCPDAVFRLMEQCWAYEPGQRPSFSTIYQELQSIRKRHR
Sequence of Serine/threonine-protein kinase 35 (Homo sapiens) (Q8TDR2 whole entry): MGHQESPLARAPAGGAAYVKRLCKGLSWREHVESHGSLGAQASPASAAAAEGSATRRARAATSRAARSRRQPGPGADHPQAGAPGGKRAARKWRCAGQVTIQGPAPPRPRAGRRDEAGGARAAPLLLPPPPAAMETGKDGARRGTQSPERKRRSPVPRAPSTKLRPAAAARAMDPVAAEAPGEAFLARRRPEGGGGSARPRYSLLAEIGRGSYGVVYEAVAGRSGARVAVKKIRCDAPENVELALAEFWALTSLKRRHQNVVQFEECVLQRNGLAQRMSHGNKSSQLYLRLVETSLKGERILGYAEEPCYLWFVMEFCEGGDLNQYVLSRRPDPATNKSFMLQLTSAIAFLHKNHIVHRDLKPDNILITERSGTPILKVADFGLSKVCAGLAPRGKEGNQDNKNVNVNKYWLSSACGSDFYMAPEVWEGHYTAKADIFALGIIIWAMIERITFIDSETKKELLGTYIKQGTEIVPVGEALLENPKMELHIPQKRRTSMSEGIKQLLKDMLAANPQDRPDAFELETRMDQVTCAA
Sequence of Interleukin-1 receptor-associated kinase 1 (Homo sapiens) (P51617 whole entry, looked up): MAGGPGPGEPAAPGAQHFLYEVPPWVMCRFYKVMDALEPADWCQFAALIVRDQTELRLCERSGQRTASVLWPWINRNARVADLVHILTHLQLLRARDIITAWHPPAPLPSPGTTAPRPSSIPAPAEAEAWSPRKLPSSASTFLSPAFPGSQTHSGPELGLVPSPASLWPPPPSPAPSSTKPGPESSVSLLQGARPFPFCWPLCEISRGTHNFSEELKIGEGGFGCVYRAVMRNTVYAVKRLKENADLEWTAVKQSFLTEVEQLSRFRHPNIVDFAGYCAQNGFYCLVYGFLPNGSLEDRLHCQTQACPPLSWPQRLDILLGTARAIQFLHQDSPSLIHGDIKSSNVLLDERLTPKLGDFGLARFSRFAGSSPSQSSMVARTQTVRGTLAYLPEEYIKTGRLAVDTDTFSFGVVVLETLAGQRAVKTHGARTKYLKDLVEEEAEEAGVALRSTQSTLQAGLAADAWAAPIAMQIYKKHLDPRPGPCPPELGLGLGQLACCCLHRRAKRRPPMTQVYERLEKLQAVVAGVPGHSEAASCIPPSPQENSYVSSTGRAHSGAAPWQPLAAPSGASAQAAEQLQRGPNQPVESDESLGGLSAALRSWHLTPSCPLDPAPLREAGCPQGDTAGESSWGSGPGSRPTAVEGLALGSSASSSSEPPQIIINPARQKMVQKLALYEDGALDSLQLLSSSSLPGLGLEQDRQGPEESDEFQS
Sequence of Histamine H1 receptor (P35367 whole entry): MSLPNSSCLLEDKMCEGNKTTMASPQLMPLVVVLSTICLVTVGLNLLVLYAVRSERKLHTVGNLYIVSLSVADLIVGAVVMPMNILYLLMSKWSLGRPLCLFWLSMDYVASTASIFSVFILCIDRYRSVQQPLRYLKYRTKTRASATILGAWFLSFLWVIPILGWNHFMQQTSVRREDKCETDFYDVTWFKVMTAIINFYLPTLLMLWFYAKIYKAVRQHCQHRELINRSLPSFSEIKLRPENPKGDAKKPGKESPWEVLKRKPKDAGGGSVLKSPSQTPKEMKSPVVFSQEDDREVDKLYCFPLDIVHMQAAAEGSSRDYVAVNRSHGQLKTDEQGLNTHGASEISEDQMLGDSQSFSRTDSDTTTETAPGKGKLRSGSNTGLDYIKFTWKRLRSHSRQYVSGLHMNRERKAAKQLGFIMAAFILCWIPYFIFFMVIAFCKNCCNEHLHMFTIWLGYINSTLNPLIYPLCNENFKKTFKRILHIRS

SMILES: Cc1cc(C)cc([C@@H]2c3cc(C)ccc3NC(=O)CN2C(=O)c2ccc(Br)s2)c1
% of inhibition (Histamine H1 receptor): 0%

dTM [1]: -0.6 K
SMILES: CN(C(=O)c1cnn2cccnc12)c1cc2c(cc1N1CCOCC1)C(=O)N(C[C@@H](F)C(C)(C)O)C2

SMILES: Nc1cnc(N2CCc3cc(S(=O)(=O)Nc4c(F)cc(Cl)cc4F)cc(N4CCCC4=O)c32)nc1 [TP-020n]
% of control [2]: 100%

SMILES: O[C@H]1CC[C@H](Nc2ncc3nc(Nc4c(F)cc(F)cc4F)n([C@H]4CCOC4)c3n2)CC1
% of control [3]: 100%

SMILES: N#Cc1cccc(-c2c[nH]c3ncnc(N4CCOCC4)c23)c1
% of control [4]: 36%

SMILES: Cc1cc([C@@H](C)Nc2ccccc2C(=O)O)c2nc(N3CCOCC3)cc(=O)n2c1 [AZD-6482]
% of control [5]: 90%

% of inhibition [6]: 12.3%
% of inhibition [7]: 15.9%
SMILES: CC[C@@H]1[C@H](F)C(=O)N[C@@H]1COc1nccc2cc(C(N)=O)c(OC)cc12 [ZIMLOVISERTIB]

SMILES: CN(C)C(=O)Cn1cc(-c2ccc(-c3cncc4ccccc34)cc2)cn1
% of control (Adenosine receptor A2a): 85%

SMILES: COc1cc(Nc2nc(C)cc(-c3cnn4nc(OC)ccc34)n2)cc(C(F)(F)F)c1
% of control [8]: 92%
